Values of other authors in publication PMC3949622, “Macrocyclic Pyridyl Polyoxazoles: Structure-Activity Studies of the Aminoalkyl Side-Chain on G-Quadruplex Stabilization and Cytotoxic Activity” (Molecules, 2013).
pIC50: −log10 of the molar value. “And” between values parts separate entries of the source, which are not always exact repeats. Equal values may be shown once. Read-outs that look alike come from different tables or passages of the source. Marks after values point to notes of the source that are not given here.

Legend:
[1] = test system: human breast cancer xenograft (MDA-MB-435); conditions: MDA-MB-435 xenograft in athymic nude mice; ref [21]; cited from earlier work
Excerpt: (§1) The development of G-quadruplex stabilizers as a potential new class of anticancer agents hinges on the ability to design compounds that stabilize only G-quadruplexes and not other nucleic acid structures such as duplex or triplex DNA [15]. While a diverse array of compounds have been reported to stabilize G-quadruplex DNA [1], most also have some ability to stabilize duplex DNA. The natural product telomestatin for example, is reported to stabilize G-quadruplex DNA with 70:1 selectivity over duplex DNA [16, 17]. In contrast, the synthetic macrocyclic hexaoxazole HXDV (Figure 1) demonst ...

KB3-1 cells = conditions: ref [21], cited from earlier work
Excerpt: as §1, with “Table 2 Relative cytotoxic activities. IC50 values (μM) ^a. | column: KB3-1 wt. || The development” for “The development”

RPMI 8402 cells = conditions: ref [21], cited from earlier work
Excerpt: as §1, with “Table 2 Relative cytotoxic activities. IC50 values (μM) ^a. | column: RPMI 8402 || The development” for “The development”

[2] = test system: Salmon testes (ST) duplex DNA; conditions: change in transition temperature of ST duplex DNA; ref [21]; cited from earlier work
Excerpt: Table 1 Effect of various pyridyl polyoxazoles on the thermal stabilities of duplex and quadruplex DNA. | column: Salmon Testes Duplex DNA / ΔTtran (°C) ^a

[3] = test system: human telomeric sequence d[T2G3(T2AG3)3A] (hTel) quadruplex DNA; conditions: change in transition temperature of hTel quadruplex DNA; ref [21]; cited from earlier work
Protocol: Table 1 Effect of various pyridyl polyoxazoles on the thermal stabilities of duplex and quadruplex DNA. | column: hTel -Quadruplex DNA / ΔTtran (°C)^a || The results observed with the hTel quadruplex DNA however, stand in stark contrast with the ST duplex DNA results. In the series of three 4-phenyl substituted analogs compound 8 and 11 strongly stabilize G-quadruplex DNA by 20.5 and 24.6 °C respectively. Compound 8 has the tertiary amine directly connected to the phenyl while in 11 the amine is separated from the phenyl ring by two methylene groups. In contrast, the 3-dimethylaminopropyl analog 12 stabilizes G-quadruplex DNA to a much lesser extent. When the side-chain is attached to the 5-position of the phenyl ring the results are quite dram ...

In the case of `CN(C)CCc1cc2cc(c1)CNC(=O)c1coc(n1)-c1coc(n1)-c1cccc(n1)-c1nc(co1)-c1nc(co1)C(=O)NC2` [Compound 2], the “%T/C (average tumor volumes of treated/control animals)” value [1] is listed as 27.7%, the pIC50 (KB3-1 cells; range given for analogs 1 and 2 together, read-out: IC50 against KB3-1 cells) is listed as 7.40 to 7.52 and the pIC50 (KB3-1 cells; read-out: IC50, KB3-1 wt.) is listed as 7.40. The pIC50 (RPMI 8402 cells; range given for analogs 1 and 2 together, read-out: IC50 against RPMI 8402 cells) was 6.74 to 7.05, the pIC50 (RPMI 8402 cells; read-out: IC50, RPMI 8402) was 6.74 and the “ΔTtran, salmon testes duplex DNA” value [2] was 0 ^b °C. For the same compound, the “ΔTtran, hTel quadruplex DNA” value [3] was 20.5 °C and 20.5 ^b °C.
